Counter-ions that a name gives are not always drawn. Like-named read-outs stand apart in the source and are kept apart here.
Tests used:
HEK293T cells = assay: qHTS cell viability (CellTiter-Glo, 72 h; primary screen), control cell line; assay type: cell-based, human
[1] = test system: six MCC cell lines and four control cell lines; assay: qHTS cell viability, all 10 cell lines screened; assay type: cell-based
UISO cells (VN-MCC) = assay: qHTS cell viability (CellTiter-Glo, 72 h; primary and follow-up small molecule screen); assay type: cell-based, human
[2] = test system: control cell lines (HACAT, HEK293T, CRL-7250, NIH-3T3); assay: qHTS cell viability, control cell lines as a group (mean AUC, Control.avg); assay type: cell-based
[3] = test system: VN-MCC cell lines (MCC13, MCC26, UISO); assay: qHTS cell viability, VN-MCC cell lines as a group (mean AUC, VN.MCC.avg); assay type: cell-based, human
MKL-2 cells (VP-MCC) = assay: qHTS cell viability (CellTiter-Glo, 72 h; primary and follow-up small molecule screen); assay type: cell-based, human
MCC26 cells (VN-MCC) = assay: as above; assay type: cell-based, human
WAGA cells (VP-MCC) = assay: as above; assay type: cell-based, human
[4] = test system: VP-MCC cell lines (WAGA, MKL-1, MKL-2); assay: qHTS cell viability, VP-MCC cell lines as a group (mean AUC, VP.MCC.avg); assay type: cell-based, human
[5] = test system: MCC cell lines (WAGA, MKL-1, MKL-2, MCC13, MCC26, UISO); assay: qHTS cell viability, all six MCC cell lines as a group (mean AUC, MCC.avg); assay type: cell-based, human
HACAT cells = assay: qHTS cell viability (CellTiter-Glo, 72 h; primary screen), control cell line; assay type: cell-based, human
MCC13 cells (VN-MCC) = assay: qHTS cell viability (CellTiter-Glo, 72 h; primary and follow-up small molecule screen); assay type: cell-based, human
NIH-3T3 cells = assay: qHTS cell viability (CellTiter-Glo, 72 h; primary screen), control cell line; assay type: cell-based, mouse
CRL-7250 cells = assay: as above; assay type: cell-based
MKL-1 cells (VP-MCC) = assay: qHTS cell viability (CellTiter-Glo, 72 h; primary and follow-up small molecule screen); assay type: cell-based, human
[6] = MIPE library, 11-point DRC, control cell line, sheet S2E
[7] = MIPE library, 11-point DRC, sheet S2E
[8] = NPC library, qHTS dose-response AUC, HEK293T control
[9] = NPC library, therapeutic window: Control avg AUC minus MCC avg AUC
[10] = NPC library, qHTS dose-response AUC, UISO
[11] = NPC library, mean AUC of control cell lines
[12] = NPC library, mean AUC of VN-MCC cell lines
[13] = NPC library, therapeutic window: Control avg AUC minus VN-MCC avg AUC
[14] = NPC library, qHTS dose-response AUC, MKL2
[15] = NPC library, qHTS dose-response AUC, MCC26
[16] = NPC library, qHTS dose-response AUC, WAGA
[17] = NPC library, mean AUC of VP-MCC cell lines
[18] = NPC library, therapeutic window: Control avg AUC minus VP-MCC avg AUC
[19] = NPC library, mean AUC of six MCC cell lines
[20] = NPC library, qHTS dose-response AUC, HACAT control
[21] = NPC library, qHTS dose-response AUC, MCC13
[22] = NPC library, qHTS dose-response AUC, NIH3T3 control
[23] = NPC library, qHTS dose-response AUC, CRL7250 control
[24] = NPC library, qHTS dose-response AUC, MKL1

SMILES: CC(=O)O[C@]1(C(C)=O)CC[C@H]2[C@@H]3C=C(C)C4=CC(=O)CC[C@]4(C)[C@H]3CC[C@@]21C [Megestrol acetate]
- HEK293T_AUC (HEK293T cells; [6]): 472.9
- HEK293T_AUC (HEK293T cells; area under the dose-response curve, HEK293T control cells, AUC<450 = reduced viability): 457.911
- Control-MCC ([1]; MIPE library, Control AUC minus MCC AUC (therapeutic window), sheet S2E): 39.5225
- UISO_AUC (UISO cells (VN-MCC); [7]): 463.276
- UISO_AUC (UISO cells (VN-MCC); area under the dose-response curve, UISO cells, AUC<450 = reduced viability): 481.624
- Area under the dose-response curve (AUC) UISO Replicate 1 (UISO cells (VN-MCC); follow-up screen, UISO, replicate 1): 487.9
- Area under the dose-response curve (AUC) UISO Replicate 2 (UISO cells (VN-MCC); follow-up screen, UISO, replicate 2): 467.2
- Area under the dose-response curve (AUC) UISO Replicate 3 (UISO cells (VN-MCC); follow-up screen, UISO, replicate 3): 452.8
- Control_Avg_AUC ([2]; MIPE library, mean AUC of control cell lines, sheet S2E): 463.906
- Control-VN-MCC ([3]; MIPE library, Control AUC minus VN-MCC AUC (therapeutic window), sheet S2E): -9.613
- VN-MCC_Avg_AUC ([3]; MIPE library, mean AUC of VN-MCC cell lines, sheet S2E): 473.519
- MKL2_AUC (MKL-2 cells (VP-MCC); [7]): 396.638
- MKL2_AUC (MKL-2 cells (VP-MCC); area under the dose-response curve, MKL-2 cells, AUC<450 = reduced viability): 447.482
- Area under the dose-response curve (AUC) MKL-2 Replicate 1 (MKL-2 cells (VP-MCC); follow-up screen, MKL-2, replicate 1): 460.3
- Area under the dose-response curve (AUC) MKL-2 Replicate 2 (MKL-2 cells (VP-MCC); follow-up screen, MKL-2, replicate 2): 492.7
- Area under the dose-response curve (AUC) MKL-2 Replicate 3 (MKL-2 cells (VP-MCC); follow-up screen, MKL-2, replicate 3): 490.0
- MCC26_AUC (MCC26 cells (VN-MCC); [7]): 477.94
- MCC26_AUC (MCC26 cells (VN-MCC); area under the dose-response curve, MCC26 cells, AUC<450 = reduced viability): 486.411
- Area under the dose-response curve (AUC) MCC26 Replicate 1 (MCC26 cells (VN-MCC); follow-up screen, MCC26, replicate 1): 464.5
- Area under the dose-response curve (AUC) MCC26 Replicate 2 (MCC26 cells (VN-MCC); follow-up screen, MCC26, replicate 2): 445.6
- Area under the dose-response curve (AUC) MCC26 Replicate 3 (MCC26 cells (VN-MCC); follow-up screen, MCC26, replicate 3): 484.7
- WAGA_AUC (WAGA cells (VP-MCC); [7]): 348.793
- WAGA_AUC (WAGA cells (VP-MCC); area under the dose-response curve, WAGA cells, AUC<450 = reduced viability): 442.363
- Area under the dose-response curve (AUC) WAGA Replicate 1 (WAGA cells (VP-MCC); follow-up screen, WAGA, replicate 1): 536.2
- Area under the dose-response curve (AUC) WAGA Replicate 2 (WAGA cells (VP-MCC); follow-up screen, WAGA, replicate 2): 483.3
- Area under the dose-response curve (AUC) WAGA Replicate 3 (WAGA cells (VP-MCC); follow-up screen, WAGA, replicate 3): 478.6
- Control-VP-MCC ([4]; MIPE library, Control AUC minus VP-MCC AUC (therapeutic window), sheet S2E): 88.658
- VP-MCC_Avg_AUC ([4]; MIPE library, mean AUC of VP-MCC cell lines, sheet S2E): 375.248
- MCC_Avg_AUC ([5]; MIPE library, mean AUC of six MCC cell lines, sheet S2E): 424.384
- HACAT_AUC (HACAT cells; [6]): 434.851
- HACAT_AUC (HACAT cells; area under the dose-response curve, HACAT control cells, AUC<450 = reduced viability): 455.962
- MCC13_AUC (MCC13 cells (VN-MCC); [7]): 479.341
- MCC13_AUC (MCC13 cells (VN-MCC); area under the dose-response curve, MCC13 cells, AUC<450 = reduced viability): 479.661
- Area under the dose-response curve (AUC) MCC13 Replicate 1 (MCC13 cells (VN-MCC); follow-up screen, MCC13, replicate 1): 522.1
- Area under the dose-response curve (AUC) MCC13 Replicate 2 (MCC13 cells (VN-MCC); follow-up screen, MCC13, replicate 2): 498.9
- Area under the dose-response curve (AUC) MCC13 Replicate 3 (MCC13 cells (VN-MCC); follow-up screen, MCC13, replicate 3): 453.4
- NIH3T3_AUC (NIH-3T3 cells; [6]): 472.047
- NIH3T3_AUC (NIH-3T3 cells; area under the dose-response curve, NIH3T3 control cells, AUC<450 = reduced viability): 478.678
- CRL7250_AUC (CRL-7250 cells; [6]): 475.825
- CRL7250_AUC (CRL-7250 cells; area under the dose-response curve, CRL7250 control cells, AUC<450 = reduced viability): 475.174
- MKL1_AUC (MKL-1 cells (VP-MCC); [7]): 380.312
- MKL1_AUC (MKL-1 cells (VP-MCC); area under the dose-response curve, MKL-1 cells, AUC<450 = reduced viability): 437.052
- Area under the dose-response curve (AUC) MKL-1 Replicate 1 (MKL-1 cells (VP-MCC); follow-up screen, MKL-1, replicate 1): 482.4
- Area under the dose-response curve (AUC) MKL-1 Replicate 2 (MKL-1 cells (VP-MCC); follow-up screen, MKL-1, replicate 2): 475.6
- Area under the dose-response curve (AUC) MKL-1 Replicate 3 (MKL-1 cells (VP-MCC); follow-up screen, MKL-1, replicate 3): 473.0

SMILES: N[C@@H](Cc1ccc(N(CCCl)CCCl)cc1)C(=O)O [Melphalan]
- HEK293T_AUC (HEK293T cells): 460.279
- Control-MCC [1]: 36.0029
- UISO_AUC (UISO cells (VN-MCC)): 405.245
- Control_Avg_AUC [2]: 455.942
- Control-VN-MCC [3]: 9.639
- VN-MCC_Avg_AUC [3]: 446.303
- MKL2_AUC (MKL-2 cells (VP-MCC)): 377.097
- MCC26_AUC (MCC26 cells (VN-MCC)): 465.715
- WAGA_AUC (WAGA cells (VP-MCC)): 417.577
- Control-VP-MCC [4]: 62.3672
- VP-MCC_Avg_AUC [4]: 393.574
- MCC_Avg_AUC [5]: 419.939
- HACAT_AUC (HACAT cells): 448.936
- MCC13_AUC (MCC13 cells (VN-MCC)): 467.949
- NIH3T3_AUC (NIH-3T3 cells): 465.754
- CRL7250_AUC (CRL-7250 cells): 448.797
- MKL1_AUC (MKL-1 cells (VP-MCC)): 386.049

SMILES: Cc1cc(OCCOCC[N+](C)(C)Cc2ccccc2)ccc1C(C)(C)CC(C)(C)C.[Cl-] [Methylbenzethonium chloride]
- HEK293T_AUC (HEK293T cells; [8]): 317.092
- Control-MCC [1, 9]: 76.0988
- UISO_AUC (UISO cells (VN-MCC); [10]): 375.218
- Control_Avg_AUC [2, 11]: 414.956
- VN-MCC_Avg_AUC [3, 12]: 436.818
- Control-VN-MCC [3, 13]: -21.8625
- MKL2_AUC (MKL-2 cells (VP-MCC); [14]): 209.354
- MCC26_AUC (MCC26 cells (VN-MCC); [15]): 455.487
- WAGA_AUC (WAGA cells (VP-MCC); [16]): 200.731
- VP-MCC_Avg_AUC [4, 17]: 240.895
- Control-VP-MCC [4, 18]: 174.06
- MCC_Avg_AUC [5, 19]: 338.857
- HACAT_AUC (HACAT cells; [20]): 428.465
- MCC13_AUC (MCC13 cells (VN-MCC); [21]): 479.749
- NIH3T3_AUC (NIH-3T3 cells; [22]): 469.697
- CRL7250_AUC (CRL-7250 cells; [23]): 444.568
- MKL1_AUC (MKL-1 cells (VP-MCC); [24]): 312.601

SMILES: CCOC(=O)[C@@](C)(N)Cc1ccc(O)c(O)c1 [Methyldopate hydrochloride]
- HEK293T_AUC (HEK293T cells; [8]): 443.954
- Control-MCC [1, 9]: 30.264
- UISO_AUC (UISO cells (VN-MCC); [10]): 416.553
- Control_Avg_AUC [2, 11]: 441.887
- VN-MCC_Avg_AUC [3, 12]: 434.044
- Control-VN-MCC [3, 13]: 7.843
- MKL2_AUC (MKL-2 cells (VP-MCC); [14]): 398.602
- MCC26_AUC (MCC26 cells (VN-MCC); [15]): 437.99
- WAGA_AUC (WAGA cells (VP-MCC); [16]): 402.509
- VP-MCC_Avg_AUC [4, 17]: 389.202
- Control-VP-MCC [4, 18]: 52.6846
- MCC_Avg_AUC [5, 19]: 411.623
- HACAT_AUC (HACAT cells; [20]): 480.325
- MCC13_AUC (MCC13 cells (VN-MCC); [21]): 447.588
- NIH3T3_AUC (NIH-3T3 cells; [22]): 431.18
- CRL7250_AUC (CRL-7250 cells; [23]): 412.089
- MKL1_AUC (MKL-1 cells (VP-MCC); [24]): 366.496
